This is an account of results in patent US9605026B2, “Hydrogen-bond surrogate peptides and peptidomimetics for p53 reactivation” (New York University, priority 2013, dated 2017).

The subject of one test is p53. The test is described as follows: p53 transcriptional activity (Cignal p53 luciferase reporter) in UMSCC47 cells. To be noted: UMSCC47 (HPV-positive), 10 μM, 24 hours, vs control (vehicle). The format is cell-based, human. From the text:
(§1) FIG. 5A is an schematic illustration showing that CH1 has two distinct target sites. HIF1-α/p300 structures were used as guides to design helix mimetics that target site A and site B on the CH1 domain of p300. […] CH1iA (SEQ ID NO: 7) and CH1iB (SEQ ID NO: 8) were designed to mimic two helices from the C-terminal domain of HIF-1α. The peptides were locked into the helical conformation by the hydrogen bond surrogate method. FIG. 5C is a graph of p53 activity. UMSCC47 (left) and UMSCC74A (right) cells were co-transfected with a p53 Firefly luciferase reporter plasmid and a control Renilla luciferase plasmid. After 24 hours, cells were treated with control (vehicle), CH1iA (10 μM), or CH1iB (10 μM) for 24 hours. Firefly luciferase activity was normalized to Renilla luciferase activity to control for transfection efficiency. Data is normalized to control and presented as mean±SEM. *P<0.05, n=3. FIG. 5D is a western blot showing total and acetylated p53 levels. UMSCC47 (left) and UMSCC74A (right) cells were treated with control (vehicle), CH1iA (10 μM), or CH1iB (10 μM) for 24 hours. Cell lysates were immunoblotted with anti-p53 or anti-acetylated[K382]-p53 antibody. FIG. 5E is a pair of graphs of p300, p53, p21, miR-34a, and miR-200c expression. UMSCC47 (top panel) and UMSCC74A (bottom panel) cells were treated with control (vehicle), CH1iA (10 μM), or CH1iB (10 μM) for 24 hours. mRNA expression was determined using qPCR with validated TaqMan assays. Data is normalized to control cells and presented as mean±SEM. *P<0.01, control vs. CH1iB, n=3. FIG. 5F is a western blot showing HPV16 E6-p300 association. UMSCC47 cells were treated with control (vehicle), CH1iA (10 μM), or CH1iB (10 μM) for 24 hours. Cell lysates were extracted, immunoprecipitated with anti-p300 antibody, and immunoblotted with anti-E6 antibody. Cell lysates were immunoblotted with anti-E6 or anti-p300 antibody for input control. FIG. 5G is a set of graphs of cell proliferation. UMSCC47 (top left panel), UMSCC74A (top right panel), and IMR90 (human normal fibroblasts) (bottom panel) cells were treated with control (vehicle), CH1iA (10 μM), CH1iB (10 μM), cis-platinum (10 μM), CH1iA (10 μM) and cis-platinum (10 μM), or CH1iB (10 μM) and cis-platinum (10 μM) for 24, 48, or 72 hours. Data is normalized to Day 0 and presented as mean±SEM. *P<0.01, control vs. CH1iB or cis-platinum, **P<0.01 CH1iB or cis-platinum vs. CH1iB and cis-platinum, n=6.
FIG. 6A is a western blot showing total and acetylated p53 levels. […] UMSCC47 cells were treated with control (vehicle), CH1iB (10 μM), cis-platinum (10 μM), or CH1iB (10 μM) and cis-platinum (10 μM) for 24 hours. mRNA expression was determined using qPCR with validated TaqMan assays. […]
In general terms: A reporter such as luciferase makes a cellular process visible.

The test system of a further test is UMSCC47 cells. The test is described as follows: Cell proliferation (MTT) in UMSCC47 cells. The format is cell-based, human.
Excerpt: as §1
FIG. 7A is a graph of p53 transcriptional activity. UMSCC47 cells were co-transfected with a p53 Firefly luciferase reporter plasmid and a control Renilla luciferase plasmid. After 24 hours, cells were treated with control (vehicle) or CH1iB-mut (10 μM) for 24 hours. Firefly luciferase activity was normalized to Renilla luciferase activity to control for transfection efficiency. Data is presented as mean±SEM. *P<0.05, n=5. FIG. 7B is a graph of cell proliferation. UMSCC47 cells were treated with control (vehicle), CH1iB-mut (10 μM), cis-platinum (10 μM), or CH1iB-mut (10 μM) and cis-platinum (10 μM) for 24 or 48 hours. Data is normalized to Day 0 and presented as mean±SEM. *P<0.01, control or CH1iB-mut vs. cis-platinum or cis-platinum+CH1iB-mut, n=6.
Cell proliferation was assessed using the MTT reagent (Roche Molecular Biochemicals, Nutley, N.J.) to detect metabolic active cells. Absorbance was measured at 570 nm in the Spectra Max 190 ELISA reader (Molecular Devices, Sunnyvale, Calif.) after overnight incubation. […]

The substance “XELA*RAADQ-NH2 (ELXRAADQ; HBS: 4-pentenoic acid, N-allylalanine; C-terminal amide; CH1iB-MUT)” displayed a p53 activity increase with p53 of 14%. The “effect on anti-proliferative efficacy of cis-platinum (combination)” value in the test with UMSCC47 cells (UMSCC47, 10 μM with cis-platinum 10 μM) was “no effect”. In the test on UMSCC47 cells (UMSCC47, 10 μM, 24-72 hours), the “cell proliferation, single-agent” value is reported as “no effect”.
